Laboratory results from PMC6855808, “Direct binding of phosphatidylglycerol at specific sites modulates desensitization of a ligand-gated ion channel” (eLife, 2019).
“And” between values parts separate entries of the source, which are not always exact repeats. Equal values may be shown once.

Tests used:
[1] = test system: ELIC WT; assay: Native MS phospholipid binding to delipidated ELIC in C10E5; set-up: species or system Erwinia chrysanthemi
Method: (§1) Native MS analysis was similar to previous descriptions for other membrane proteins ([Gault et al., 2016]). For analysis of ELIC in DDM, 30 μl of purified protein in 0.02% DDM at ~1 mg/ml was buffer exchanged into 200 mM ammonium acetate pH 7.5% and 0.02% DDM using Biospin six gel filtration spin columns (Bio-Rad, Hercules, CA). 2 μl of buffer exchanged ELIC was loaded into a borosilicate capillary emitter (Thermo Scientific, Waltham, MA), and analyzed by static nanospray on a Thermo QExactive EMR mass spectrometer. The following parameters were used to resolve the ELIC pentamer and minimize dissociation into tetramer and monomer: capillary voltage of 1.2 kV, capillary temperature of 200°C, ion transfer optics set with the injection flatapole, inter-flatapole lens, bent flatapole, transfer multiple as 8, 7, 6, 4 V, respectively, resolution 8,750, AGC target 3 × 10^6, trap pressure set to maximum, CID 200 V, and CE 100 V. For analysis of ELIC in C10E5, ELIC delipidated by injecting 300 μg onto a Sephadex 200 10/300 column (GE Healthcare) at 0.5 ml/min pre-equilibrated with Buffer A, 10% glycerol, and 0.06% C10E5 (Anatrace). 30 μl aliquots were then buffer exchanged to 100 mM ammonium acetate pH 7.5, 0.06% C10E5 using Biospin six columns, and diluted to 0.2 mg/ml. MS measurements on the QExactive EMR were performed with the parameters listed above except: capillary temperature 100°C, CID 75 V and CE 200 V. For lipid binding measurements, stocks of POPG lipid were prepared at 2× the concentration of POPG being tested in 100 mM ammonium acetate pH 7.5% and 0.06% C10E5. Lipid stocks were then mixed with 0.4 mg/ml ELIC in a 1:1 vol ratio for a final concentration of 1 μM ELIC, and samples were analyzed after >5 min incubation.
(§2) MS spectra were deconvoluted using UniDec ([Marty et al., 2015]); deconvolution of spectra with bound lipid was restricted to the 26+ to 22+ charge states (Figure 1—figure supplement 3). Peak heights of apo and lipid-bound species were extracted from UniDec, and analyzed by two approaches. The average number of bound lipids was determined by the following relationship:(1) Averagenumberboundlipid=∑n=0kn\cdot In/∑n=0kIn where n is the number of bound lipids and In is the deconvoluted peak height of ELIC with n bound lipids. Peak heights of apo and lipid-bound species were also plotted as mole fraction versus the number of bound lipids (Figure 1—figure supplement 4).
(§3) Then, the probability (B) that q sites are occupied out of N total sites is given by the binomial probability function:(3) Bq=N!/q!N-q!p^N-q(1-p)^q
(§4) B(q) was used to determine the mole fraction of each lipid-bound species at a given [A], which was used to fit the native MS data in Excel across all [A] by setting K constant and varying N or vice versa.

[2] = molecular target: T1, ELIC R117Q/R299Q (Dickeya chrysanthemi, UniProt P0C7B7, R117Q/R298Q); assay: Native MS POPG binding, mutant; set-up: species or system Erwinia chrysanthemi; settings: binomial fit, N varied; 12 μM POPG
T1 construct: MBP (N, cleaved yes); made in house; host or cells: OverExpress C43 (DE3) E. coli
Method: as §1, §2, §3, §4

[3] = molecular target: T2, ELIC R123Q/R299Q (Dickeya chrysanthemi, UniProt P0C7B7, R123Q/R298Q); assay: Native MS POPG binding, mutant; set-up: species or system Erwinia chrysanthemi; settings: binomial fit, N varied; 12 μM POPG
T2 construct: MBP (N, cleaved yes); made in house; host or cells: OverExpress C43 (DE3) E. coli
Method: as §1, §2, §3, §4

[4] = molecular target: T3, ELIC R286Q (Dickeya chrysanthemi, UniProt P0C7B7, R285Q); assay: Native MS POPG binding, mutant; set-up: species or system Erwinia chrysanthemi; settings: binomial fit, N varied; 12 μM POPG
T3 construct: MBP (N, cleaved yes); made in house; host or cells: OverExpress C43 (DE3) E. coli
Method: as §1, §2, §3, §4

[5] = molecular target: T4, ELIC R286Q/R299Q (Dickeya chrysanthemi, UniProt P0C7B7, R285Q/R298Q); assay: Native MS POPG binding, mutant; set-up: species or system Erwinia chrysanthemi; settings: binomial fit, N varied; 12 μM POPG
T4 construct: MBP (N, cleaved yes); made in house; host or cells: OverExpress C43 (DE3) E. coli
Method: as §1, §2, §3, §4

[6] = molecular target: T5, ELIC R299Q (Dickeya chrysanthemi, UniProt P0C7B7, R298Q); assay: Native MS POPG binding, mutant; set-up: species or system Erwinia chrysanthemi; settings: binomial fit, N varied; 12 μM POPG
T5 construct: MBP (N, cleaved yes); made in house; host or cells: OverExpress C43 (DE3) E. coli
Method: as §1, §2, §3, §4

[7] = molecular target: T6, ELIC R301Q/R299Q (Dickeya chrysanthemi, UniProt P0C7B7, R298Q/R300Q); assay: Native MS POPG binding, mutant; set-up: species or system Erwinia chrysanthemi; settings: binomial fit, N varied; 12 μM POPG
T6 construct: MBP (N, cleaved yes); made in house; host or cells: OverExpress C43 (DE3) E. coli
Method: as §1, §2, §3, §4

[8] = molecular target: T7, ELIC L238A (Dickeya chrysanthemi, UniProt P0C7B7, L237A); assay: Native MS POPG binding, mutant; set-up: species or system Erwinia chrysanthemi; settings: 12 μM POPG
T7 construct: MBP (N, cleaved yes); made in house; host or cells: OverExpress C43 (DE3) E. coli
Method: (§5) Native MS analysis was similar to previous descriptions for other membrane proteins ([Gault et al., 2016]). For analysis of ELIC in DDM, 30 μl of purified protein in 0.02% DDM at ~1 mg/ml was buffer exchanged into 200 mM ammonium acetate pH 7.5% and 0.02% DDM using Biospin six gel filtration spin columns (Bio-Rad, Hercules, CA). 2 μl of buffer exchanged ELIC was loaded into a borosilicate capillary emitter (Thermo Scientific, Waltham, MA), and analyzed by static nanospray on a Thermo QExactive EMR mass spectrometer. […] Lipid stocks were then mixed with 0.4 mg/ml ELIC in a 1:1 vol ratio for a final concentration of 1 μM ELIC, and samples were analyzed after >5 min incubation.
as §2, with “Peak heights of apo and lipid-bound species were also plotted as mole fraction versus the number of bound lipids (Figure 1—figure supplement 4).” left out

[9] = test system: ELIC single mutants (R123Q, R286Q, R299Q); assay: Native MS POPG binding, single arginine mutants as a group; set-up: species or system Erwinia chrysanthemi; settings: 12 μM POPG; not statistically significant
Method: as §5
as §2, with “Peak heights of apo and lipid-bound species were also plotted as mole fraction versus the number of bound lipids (Figure 1—figure supplement 4).” left out

[10] = test system: ELIC double mutants (arginine mutants in combination with R299Q); assay: Native MS POPG binding, double arginine mutants as a group; set-up: species or system Erwinia chrysanthemi
Method: as §1, with “MS measurements on the QExactive EMR were performed with the parameters listed above except: capillary temperature 100°C, CID 75 V and CE 200 V. For lipid binding measurements, stocks of POPG lipid were prepared at 2× the concentration of POPG being tested in 100 mM ammonium acetate pH 7.5% and 0.06% C10E5.” left out
as §2, with “Peak heights of apo and lipid-bound species were also plotted as mole fraction versus the number of bound lipids (Figure 1—figure supplement 4).” left out

[11] = test system: ELIC WT; assay: Thermal stability assay (SEC pentamer peak after heating); type: binding, Erwinia chrysanthemi
Method: Purified WT ELIC in C10E5 (Buffer A, 0.06% C10E5) was diluted to 1 μM in the absence or presence of various concentrations of phospholipid. Samples were analyzed without and with heating in the absence or presence of phospholipid. […] The stabilizing effect of a phospholipid was quantified as the pentamer amplitude in the presence of phospholipid (heated) divided by control (heated).

[12] = test system: ELIC WT; assay: Excised patch-clamp recordings from giant liposomes; settings: 30 mM cysteamine; for Desensitization norm current at 20 s: normalized to peak response

T6 sequence (P0C7B7 whole entry R298Q/R300Q): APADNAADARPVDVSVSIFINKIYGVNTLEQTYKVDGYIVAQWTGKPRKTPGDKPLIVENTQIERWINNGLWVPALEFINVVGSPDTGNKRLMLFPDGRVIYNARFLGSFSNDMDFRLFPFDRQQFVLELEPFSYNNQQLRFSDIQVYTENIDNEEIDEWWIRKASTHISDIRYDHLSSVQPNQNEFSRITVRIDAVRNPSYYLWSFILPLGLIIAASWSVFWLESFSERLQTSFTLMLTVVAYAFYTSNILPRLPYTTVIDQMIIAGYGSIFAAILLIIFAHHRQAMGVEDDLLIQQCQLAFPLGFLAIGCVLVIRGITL
T7 sequence (P0C7B7 whole entry L237A): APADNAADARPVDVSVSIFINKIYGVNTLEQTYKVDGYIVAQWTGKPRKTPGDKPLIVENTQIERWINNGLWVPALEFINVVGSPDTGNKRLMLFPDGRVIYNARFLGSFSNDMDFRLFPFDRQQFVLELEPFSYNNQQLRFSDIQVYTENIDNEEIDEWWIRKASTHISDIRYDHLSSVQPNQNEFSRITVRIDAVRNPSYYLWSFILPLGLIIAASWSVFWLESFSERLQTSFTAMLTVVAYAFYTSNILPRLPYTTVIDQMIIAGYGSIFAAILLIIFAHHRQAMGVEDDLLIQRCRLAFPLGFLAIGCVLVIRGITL
T5 sequence (P0C7B7 whole entry R298Q): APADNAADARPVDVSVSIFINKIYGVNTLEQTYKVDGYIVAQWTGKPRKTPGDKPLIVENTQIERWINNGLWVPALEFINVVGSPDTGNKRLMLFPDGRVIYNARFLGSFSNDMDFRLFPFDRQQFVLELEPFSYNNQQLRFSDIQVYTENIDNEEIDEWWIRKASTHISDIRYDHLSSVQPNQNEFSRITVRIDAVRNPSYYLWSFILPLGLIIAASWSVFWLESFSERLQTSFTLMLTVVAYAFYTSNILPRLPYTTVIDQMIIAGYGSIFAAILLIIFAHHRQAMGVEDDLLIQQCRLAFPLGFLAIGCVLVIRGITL
T1 sequence (P0C7B7 whole entry R117Q/R298Q): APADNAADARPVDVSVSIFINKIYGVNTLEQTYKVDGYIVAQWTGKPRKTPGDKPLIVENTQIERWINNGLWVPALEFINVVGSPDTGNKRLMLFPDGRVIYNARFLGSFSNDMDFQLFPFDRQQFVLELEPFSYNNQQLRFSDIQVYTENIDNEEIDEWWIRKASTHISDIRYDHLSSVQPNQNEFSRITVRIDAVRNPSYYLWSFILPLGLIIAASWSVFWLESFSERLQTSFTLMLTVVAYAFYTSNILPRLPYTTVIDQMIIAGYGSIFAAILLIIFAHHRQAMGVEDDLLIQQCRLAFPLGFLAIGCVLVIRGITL
T3 sequence (P0C7B7 whole entry R285Q): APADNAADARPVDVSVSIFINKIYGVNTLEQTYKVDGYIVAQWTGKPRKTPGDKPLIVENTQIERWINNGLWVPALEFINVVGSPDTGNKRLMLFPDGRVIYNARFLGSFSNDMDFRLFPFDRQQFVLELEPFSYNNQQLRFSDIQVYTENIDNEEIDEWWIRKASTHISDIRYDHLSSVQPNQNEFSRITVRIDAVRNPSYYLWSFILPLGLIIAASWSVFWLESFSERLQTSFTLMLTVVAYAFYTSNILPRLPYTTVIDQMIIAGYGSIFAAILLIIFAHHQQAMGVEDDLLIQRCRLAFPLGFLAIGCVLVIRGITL
T4 sequence (P0C7B7 whole entry R285Q/R298Q): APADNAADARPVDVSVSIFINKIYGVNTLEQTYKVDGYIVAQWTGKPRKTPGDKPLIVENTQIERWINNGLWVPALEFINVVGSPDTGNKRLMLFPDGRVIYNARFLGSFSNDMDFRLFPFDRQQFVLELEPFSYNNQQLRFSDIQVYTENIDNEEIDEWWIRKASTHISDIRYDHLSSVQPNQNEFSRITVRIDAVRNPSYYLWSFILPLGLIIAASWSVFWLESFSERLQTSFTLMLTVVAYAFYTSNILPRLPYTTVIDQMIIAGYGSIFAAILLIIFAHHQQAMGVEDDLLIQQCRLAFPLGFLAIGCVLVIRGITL
T2 sequence (P0C7B7 whole entry R123Q/R298Q): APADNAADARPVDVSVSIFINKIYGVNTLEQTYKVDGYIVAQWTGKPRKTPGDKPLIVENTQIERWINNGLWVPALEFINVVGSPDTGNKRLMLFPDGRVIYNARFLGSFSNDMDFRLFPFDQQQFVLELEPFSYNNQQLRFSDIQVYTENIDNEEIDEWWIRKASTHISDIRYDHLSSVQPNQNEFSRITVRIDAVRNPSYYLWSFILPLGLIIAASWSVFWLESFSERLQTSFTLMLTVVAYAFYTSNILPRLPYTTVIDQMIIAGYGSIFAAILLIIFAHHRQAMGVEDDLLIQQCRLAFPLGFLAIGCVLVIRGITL

## CCCCCCCC/C=C\CCCCCCCC(=O)OC(COC(=O)CCCCCCCCCCCCCCC)COP(=O)(O)OCC(O)CO (centres unmarked) [POPG, 1-palmitoyl-2-oleoyl-phosphatidylglycerol]
[1]; 12 μM lipid, 1 μM ELIC
  Average number of bound phospholipids per pentamer: 2.9
  Maximum number of bound POPG per pentamer seen in native MS spectra: up to nine
[1]; binomial binding model, 32 sites of equal affinity, 1 μM ELIC in C10E5, read-out: Dissociation constant K
  Kd: 101 µM
[1]; from binomial fits
  Fold higher affinity than POPC: ~2.8 ×
  Fold higher affinity than POPE: ~ 1.9 ×
[2]
  N (# sites): 20
[3]
  N (# sites): 18
[4]
  N (# sites): 28
[5]
  N (# sites): 18
[6]
  N (# sites): 27
[7]
  N (# sites): 21
[8]
  Increase in average number of POPG bound compared to WT: ~ 1.7 x
[9]
  Decrease in average number of bound POPG compared to WT: 13–18%
[10]
  Decrease in bound phospholipid with each double mutant: 35–45%
[10]; 12 μM POPG
  Decrease in average number of bound POPG relative to R299Q: 27–32%
  Decrease in average number of bound POPG relative to WT: 38–41%
[11]; 1 μM ELIC in C10E5, 32°C for 15 min, read-out: EC50 of thermal stabilizing effect (concentration of POPG for 50% effect)
  EC50: 52 µM
[11]; extrapolation relating POPG binding to thermal stability
  Fraction of thermal stabilizing effect yielded by 32 bound POPG: ~ 82% and > 80%
[12]; 12 mole% POPG giant liposomes
  Desensitization weighted τ: 0.93 ± 0.32 s
[12]; 12 mole% POPG
  Activation τ: 112 ± 29 ms
  Desensitization norm current at 20 s: 0.05 ± 0.02
[12]; 25 mole% POPG
  Activation τ: 134 ± 50 ms
  Desensitization norm current at 20 s: 0.10 ± 0.04
[12]; 40 mole% POPG giant liposomes
  Desensitization weighted τ: 2.98 ± 0.24 s
[12]; 40 mole% POPG
  Activation τ: 133 ± 66 ms
  Desensitization norm current at 20 s: 0.21 ± 0.03
